For test [1], the system named is Giardia intestinalis. Kind of test: Antiprotozoal activity against Giardia lamblia IMSS:1090:1. In kind it is functional, organism-based. Conditions: Giardia duodenalis.
Test [2] deals with Entamoeba histolytica. Nature of the test: Antiprotozoal activity against Entamoeba histolytica HM-1:IMSS. Type of test: functional, organism-based.

Structures are written as SMILES.

The term IC50 denotes the concentration at which inhibition is half-maximal. Higher therefore signals lower potency.

For `C=C1[C@@H]2CC[C@H]3[C@]4(C)CCC[C@@](C)(C(=O)O[C@@H]5O[C@H](CO)[C@@H](O)[C@H](O)[C@H]5O)[C@H]4CC[C@]3(C2)[C@@H]1O[C@H]1O[C@@H](C)[C@@H](O)[C@@H](OC(C)=O)[C@@H]1O`, the IC50 in test [1] is 48.9 µM; in test [2], 52.7 µM.

Regarding `C=C1[C@@H]2CC[C@H]3[C@]4(C)CCC[C@@](C)(C(=O)O)[C@H]4CC[C@]3(C2)[C@@H]1O[C@H]1O[C@@H](C)[C@@H](O)[C@@H](O)[C@@H]1O`, the IC50 in test [1] worked out at 98.5 µM; in test [2] it was 73.5 µM.

`C=C1[C@@H]2CC[C@H]3[C@]4(C)CCC[C@@](C)(C(=O)O[C@@H]5O[C@H](CO)[C@@H](O)[C@H](O)[C@H]5O)[C@H]4CC[C@]3(C2)[C@@H]1O[C@H]1O[C@@H](C)[C@@H](OC(C)=O)[C@@H](O)[C@@H]1O`: the IC50 came to 69.5 µM in test [1] and 49.5 µM in test [2].

With `C=C1[C@@H]2CC[C@H]3[C@]4(C)CCC[C@@](C)(C(=O)O[C@@H]5O[C@H](CO)[C@@H](O)[C@H](O)[C@H]5O)[C@H]4CC[C@]3(C2)[C@@H]1O[C@H]1O[C@@H](C)[C@@H](O)[C@@H](O)[C@@H]1O`, the IC50 was determined as 41.9 µM in test [1] and 43.3 µM in test [2].

The values are drawn from ChEMBL document CHEMBL3739326, “ent-Kaurene Glycosides from Ageratina cylindrica” (J Nat Prod, 2015).
